Values after ≈ are worked out from the molar mass of the structure shown.
Assays:
Format in all cases: functional
Staphylococcus aureus [1] = assay: Antimicrobial activity against compound treated Staphylococcus aureus harboring mgrA C12S mutant gene retro-orbitally infected into mouse assessed as reduction in bacterial CFU in liver at 10 ug/ml relative to control
Staphylococcus aureus [2] = assay: Antimicrobial activity against compound treated Staphylococcus aureus harboring mgrA C12S mutant gene retro-orbitally infected into mouse assessed as reduction in bacterial CFU in kidney at 10 ug/ml relative to control
Staphylococcus aureus [3] = assay: Antimicrobial activity against Staphylococcus aureus expressing mgrA C12S mutant gene
Staphylococcus aureus [4] = assay: Antimicrobial activity against Staphylococcus aureus

| Compound | fold change (FC) (Staphylococcus aureus [1]) | fold change (FC) (Staphylococcus aureus [2]) | MIC (Staphylococcus aureus [3]) | MIC (Staphylococcus aureus [4]) |
| --- | --- | --- | --- | --- |
| CC[C@H]1OC(=O)[C@H](C)[C@@H](O[C@H]2C[C@@](C)(OC)[C@@H](O)[C@H](C)O2)[C@H](C)[C@@H](O[C@@H]2O[C@H](C)C[C@H](N(C)C)[C@H]2O)[C@](C)(O)C[C@@H](C)C(=O)[C@H](C)[C@@H](O)[C@]1(C)O [ERYTHROMYCIN] | 100 | 10000 | – | – |
| CCn1cc(C(=O)O)c(=O)c2cc(F)c(N3CCNCC3)cc21 [NORFLOXACIN] | – | – | 1.4 µg/mL (≈ 4.38 µM) | 0.7 µg/mL (≈ 2.19 µM) |

Source: ChEMBL document CHEMBL1240316, “An oxidation-sensing mechanism is used by the global regulator MgrA in Staphylococcus aureus” (2006)
